Experimental data published in patent US11242361B2 (Proteostasis Therapeutics, Inc., priority 2013, dated 2022).
Where a name gives a salt, the structure may show the parent alone.

Molecular target: USP14 (Homo sapiens (Human), UniProt P54578)
Test: USP14 Inhibition Assay
Type: biochemical
Conditions: average value from a minimum of two experimental determinations, read-out: IC50 Category
Procedure: Example 17: USP14 Inhibition Assay
“I” in the Table below designates an IC50 of >5 μM, “II” in the Table below designates and IC50 between 0.5 and 5 μM, and “III” designates an IC50<0.5 μM. The IC50 values in the Table below represent the average value from a minimum of two experimental determinations.

Chain of USP14 (P54578 whole entry, looked up): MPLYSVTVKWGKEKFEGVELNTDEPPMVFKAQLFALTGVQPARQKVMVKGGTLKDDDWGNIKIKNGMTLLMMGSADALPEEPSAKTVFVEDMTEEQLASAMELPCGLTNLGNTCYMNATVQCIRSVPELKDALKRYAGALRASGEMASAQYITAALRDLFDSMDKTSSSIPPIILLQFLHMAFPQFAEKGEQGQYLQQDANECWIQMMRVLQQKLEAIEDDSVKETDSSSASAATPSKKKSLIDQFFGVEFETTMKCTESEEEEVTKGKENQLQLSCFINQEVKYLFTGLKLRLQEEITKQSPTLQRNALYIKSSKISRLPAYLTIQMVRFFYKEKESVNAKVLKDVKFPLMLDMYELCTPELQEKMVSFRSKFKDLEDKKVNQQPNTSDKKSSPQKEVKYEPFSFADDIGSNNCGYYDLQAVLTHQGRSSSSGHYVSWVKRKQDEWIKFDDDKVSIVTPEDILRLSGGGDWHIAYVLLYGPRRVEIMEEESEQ

| SMILES | IC50 [nM] |
| --- | --- |
| Cc1c(C(=O)CN2CCCCC2)c2ccc(CN3C(=O)c4ccccc4C3=O)cc2n1-c1ccc(Cl)cc1 [Compound 152, 2-((1-(4-Chlorophenyl)-2-methyl-3-(2-(piperidin-1-yl)acetyl)-1H-indol-6-yl)methyl)isoindoline-1,3-dione] | 500 to 5000 |
| COc1cccc2c(C(=O)CN3CCCCC3)c(C)n(-c3ccc(C#N)cc3)c12 [Compound 146] | 500 to 5000 |
| Cc1c(C(=O)CN2CCC(NC(=O)c3ccc(N=[N+]=[N-])cc3)CC2)c2ccccc2n1-c1ccc(Cl)cc1 [Compound 147] | 500 to 5000 |
| Cc1c(C(=O)CN2CCCCC2)c2ccc(CCO)cc2n1-c1ccc(C#N)cc1 [Compound 207, 4-(6-(2-Hydroxyethyl)-2-methyl-3-(2-(piperidin-1-yl)acetyl)-1H-indol-1-yl)benzonitrile] | < 500 |
| O=C(CN1CCCCC1)c1cn(-c2ccc(Cl)cc2)c2cc(CO)ccc12 [Compound 115, 1-(1-(4-Chlorophenyl)-6-(hydroxymethyl)-1H-indol-3-yl)-2-(piperidin-1-yl)ethan-1-one] | > 5000 |
| Cc1c(C(=O)CN2CCC(N)CC2)c2ncc(Br)cc2n1-c1ccc(C#N)cc1 [Compound 367] | 500 to 5000 |
| Cc1c(C(=O)CN2CCC(O)CC2)c2ccccc2n1-c1ncc(Cl)s1 [Compound 402] | > 5000 |
| Cc1ccc2c(c1)c(C(=O)CN1CCCCC1)c(C)n2-c1ccc(Cl)cc1 [Compound 156] | < 500 |
| Cc1c(C(=O)CC2CCCCC2)c2ncccc2n1-c1ccc(C#N)cc1 [Compound 116] | > 5000 |
| Cc1c(C(=O)CN2CCCCC2)c2ccc(CO[Si](C)(C)C(C)(C)C)cc2n1-c1ccc(Cl)cc1 [Compound 153, 1-(6-(((tert-Butyldimethylsilyl)oxy)methyl)-1-(4-chlorophenyl)-2-methyl-1H-indol-3-yl)-2-(piperidin-1-yl)ethan-1-one] | 500 to 5000 |
| Cc1c(C(=O)CN2CCCCC2)c2ccncc2n1-c1ccc(C#N)cc1 [Compound 144, 4-(2-Methyl-3-(2-(piperidin-1-yl)acetyl)-1H-pyrrolo[2,3-c]pyridin-1-yl)benzonitrile] | 500 to 5000 |
| CCN(C)C(=O)Cc1cnc2c(C(=O)CN3CCCCC3)c(C)n(-c3ccc(C#N)cc3)c2c1 [Compound 382, 2-(1-(4-Cyanophenyl)-2-methyl-3-(2-(piperidin-1-yl)acetyl)-1H-pyrrolo[3,2-b]pyridin-6-yl)-N-ethyl-N-methylacetamide] | < 500 |
| Cc1c(C(=O)CN2CC=CC2)c2ncc(Br)cc2n1-c1ccc(C#N)cc1 [Compound 315] | < 500 |
| CCNC(=O)Cc1cnc2c(C(=O)CN3CCCCC3)c(C)n(-c3ccc(C#N)cc3)c2c1 [Compound 383, 2-(1-(4-Cyanophenyl)-2-methyl-3-(2-(piperidin-1-yl)acetyl)-1H-pyrrolo[3,2-b]pyridin-6-yl)-N-ethylacetamide] | < 500 |
| Cc1nc2c(C(=O)CN3CCCCC3)c(C)n(-c3ccc(C#N)cc3)c2cc1CCC(=O)O [Compound 202, 3-(1-(4-Cyanophenyl)-2,5-dimethyl-3-(2-(piperidin-1-yl)acetyl)-1H-pyrrolo[3,2-b]pyridin-6-yl)propanoic Acid Hydrochloride Salt] | < 500 |
| CN(C)c1c(C(=O)CN2CCCCC2)c2ccccc2n1-c1ccc(Cl)cc1 [Compound 192] | > 5000 |
| CCOC(=O)CCc1ccc2c(C(=O)CN3CCCCC3)c(C)n(-c3ccc(C#N)cc3)c2c1 [Compound 133, Ethyl 3-(1-(4-Cyanophenyl)-2-methyl-3-(2-(piperidin-1-yl)acetyl)-1H-indol-6-yl)propanoate] | < 500 |
| Cc1c(C(=O)CN2CCC(O)CC2)c2ccccc2n1-c1ncc(Cl)cn1 [Compound 400] | > 5000 |
| CCOC(=O)CCc1cc2c(nc1C)c(C(=O)CN1CCCCC1)c(C)n2-c1ccc(C#N)cc1 [Compound 200, Ethyl 3-(1-(4-Cyanophenyl)-2,5-dimethyl-3-(2-(piperidin-1-yl)acetyl)-1H-pyrrolo[3,2-b]pyridin-6-yl)propanoate] | < 500 |
| COc1cnc2c(C(=O)CN3CCCCC3)c(C)n(-c3ccc(C#N)cc3)c2c1 [Compound 326, 4-(6-Methoxy-2-methyl-3-(2-(piperidin-1-yl)acetyl)-1H-pyrrolo[3,2-b]pyridin-1-yl)benzonitrile] | < 500 |
| Cc1c(C(=O)CN2CCCCC2)c2cnccc2n1-c1ccc(C#N)cc1 [Compound 151, 4-(2-Methyl-3-(2-(piperidin-1-yl)acetyl)-1H-pyrrolo[3,2-c]pyridin-1-yl)benzonitrile] | 500 to 5000 |

Next, values leading:

| IC50 [nM] | SMILES |
| --- | --- |
| > 5000 | O=C(CN1CCCCC1)c1cn(-c2ccc(Cl)cc2)c2cc(O)ccc12 [Compound 120] |
| < 500 | Cc1cnc2c(C(=O)CN3CCCC(F)C3)c(C)n(-c3ccc(C#N)cc3)c2c1 (stereo not shown) [Compound 189] |
| < 500 | C=Cc1ccc2c(C(=O)CN3CCCCC3)c(C)n(-c3ccc(C#N)cc3)c2c1 [Compound 206, 4-(2-Methyl-3-(2-(piperidin-1-yl)acetyl)-6-vinyl-1H-indol-1-yl)benzonitrile] |
| < 500 | Cc1c(C(=O)CN2CCCCC2)c2nc(F)ccc2n1-c1ccc(Cl)cc1 [Compound 173] |
| > 5000 | COc1c(C(=O)CN2CCCCC2)c2ccccc2n1-c1ccc(Cl)cc1 [Compound 132, 1-(1-(4-Chlorophenyl)-2-methoxy-1H-indol-3-yl)-2-(piperidin-1-yl)ethan-1-one] |
| < 500 | CNc1ccc2c(c1)c(C(=O)CN1CCCCC1)c(C)n2-c1ccc(C#N)cc1 [Compound 199, 4-(2-Methyl-5-(methylamino)-3-(2-(piperidin-1-yl)acetyl)-1H-indol-1-yl)benzonitrile] |
| > 5000 | Cc1c(C(=O)CN2CCC(O)CC2)c2ccc(F)cc2n1-c1ccc(Cl)cc1 [Compound 394] |
| > 5000 | Cc1c(C(=O)CN2C[C@H](C)C[C@@H](C)C2)c2ncc(Br)cc2n1-c1ccc(C#N)cc1 [Compound 348] |
| < 500 | Cc1c(C(=O)CN2CCC[C@@H]2C)c2ncc(Br)cc2n1-c1ccc(C#N)cc1 [Compound 307] |
| < 500 | Cc1c(C(=O)CN2CCC(O)CC2)c2ncc(C(F)(F)F)cc2n1-c1ccc(C#N)cc1 [Compound 302] |
| > 5000 | Cc1c(C(=O)CN2CCC2)c2ncc(Br)cc2n1-c1ccc(C#N)cc1 [Compound 325] |
| < 500 | Cc1c(C(=O)CN2CCC(CN)CC2)c2ncc(Br)cc2n1-c1ccc(C#N)cc1 [Compound 354] |
| < 500 | Cc1c(C(=O)CN2CCCCC2)c2c(F)cccc2n1-c1ccc(C#N)cc1 [Compound 168] |
| < 500 | COc1cccc2c1c(C(=O)CN1CCCCC1)c(C)n2-c1ccc(C#N)cc1 [Compound 167] |
| < 500 | Cc1nc2c(C(=O)CN3CCCCC3)c(C)n(-c3ccc(C#N)cc3)c2cc1CCC(N)=O [Compound 210, 3-(1-(4-Cyanophenyl)-2,5-dimethyl-3-(2-(piperidin-1-yl)acetyl)-1H-pyrrolo[3,2-b]pyridin-6-yl)propanamide] |
| > 5000 | Cc1c(C(=O)CN2CC[C@H](O)[C@@H](O)C2)c2ncc(Br)cc2n1-c1ccc(C#N)cc1 [Compound 328] |

| IC50 [nM] | SMILES |
| --- | --- |
| > 5000 | CNCc1ccc2c(C(=O)CN3CCCCC3)cn(-c3ccc(Cl)cc3)c2c1 [Compound 119, 1-(1-(4-Chlorophenyl)-6-((methylamino)methyl)-1H-indol-3-yl)-2-(piperidin-1-yl)ethan-1-one] |
| < 500 | Cc1c(C(=O)CN2CCC(O)CC2)c2ncc(/C=C/c3nnc(C(F)(F)F)o3)cc2n1-c1ccc(C#N)cc1 [Compound 321] |
| < 500 | Cc1c(C(=O)CN2CCCCC2)c2ncccc2n1-c1ccc(C#N)cc1 [Compound 162, 4-(2-Methyl-3-(2-(piperidin-1-yl)acetyl)-1H-pyrrolo[3,2-b]pyridin-1-yl)benzonitrile] |
| > 5000 | Cc1c(C(=O)CN2CCCCC2)c2nc(O)ccc2n1-c1ccc(C#N)cc1 [Compound 127, 4-(5-Hydroxy-2-methyl-3-(2-(piperidin-1-yl)acetyl)-1H-pyrrolo[3,2-b]pyridin-1-yl)benzonitrile] |
| < 500 | Cc1c(C(=O)CN2CCCCC2)c2ncc(C#CCOC(=O)N(C)C)cc2n1-c1ccc(C#N)cc1 [Compound 319, 3-(1-(4-Cyanophenyl)-2-methyl-3-(2-(piperidin-1-yl)acetyl)-1H-pyrrolo[3,2-b]pyridin-6-yl)prop-2-yn-1-yl Dimethylcarbamate] |
| 500 to 5000 | Cc1c(C(=O)CN2CCC(NC(=O)OC(C)(C)C)CC2)c2ccccc2n1-c1ccc(Cl)cc1 [Compound 142] |
| < 500 | Cc1c(C(=O)CN2CCCCC2)c2ccc(CCC(N)=O)cc2n1-c1ccc(C#N)cc1 [Compound 194, 3-(1-(4-Cyanophenyl)-2-methyl-3-(2-(piperidin-1-yl)acetyl)-1H-indol-6-yl)propanamide] |
| 500 to 5000 | CCc1c(C(=O)CN2CCCCC2)c2ccccc2n1-c1ccc(Cl)cc1 [Compound 401] |
| < 500 | CCOC(=O)C[C@H](C)c1cnc2c(C(=O)CN3CCCCC3)c(C)n(-c3ccc(C#N)cc3)c2c1 [Compound 351, Ethyl (S)-3-(1-(4-Cyanophenyl)-2-methyl-3-(2-(piperidin-1-yl)acetyl)-1H-pyrrolo[3,2-b]pyridin-6-yl)butanoate] |
| 500 to 5000 | Cc1c(C(=O)CN2CCC(O)CC2)c2ccccc2n1-c1ccc(F)c(F)c1 [Compound 391] |
| < 500 | Cc1c(C(=O)CN2CCCCC2)c2nc(F)ccc2n1-c1ccc(C#N)cc1 [Compound 165] |
| < 500 | CCOC(=O)Cc1cnc2c(C(=O)CN3CCCCC3)c(C)n(-c3ccc(C#N)cc3)c2c1 [Compound 384, Ethyl 2-(1-(4-Cyanophenyl)-2-methyl-3-(2-(piperidin-1-yl)acetyl)-1H-pyrrolo[3,2-b]pyridin-6-yl)acetate] |
| < 500 | Cc1c(C(=O)CN2CCCCC2)c2ccccc2n1-c1ccc([N+](=O)[O-])cc1 [Compound 164] |
| > 5000 | O=C(CN1CCCC1)c1cn(-c2ccc(Cl)cc2)c2ccccc12 [Compound 34] |
| < 500 | COC1CCN(CC(=O)c2c(C)n(-c3ccc(C#N)cc3)c3cc(Br)cnc23)CC1 [Compound 311] |
